# Results published in patent US7473708B2, “Agents with leukotriene B4-like antiviral (enveloped RNA) activities” (priority 1996, dated 2009).
# Values joined by “and” are separate entries in the source; they are usually repeats but may differ in a detail not shown here. Equal values may be shown once.
# Tests used:
# EBV, strain B95-8 = assay: EBV-induced clump formation in peripheral blood mononuclear cells; format: cell-based, human; settings: EBV-infected PBMC, ten to twelve days of culture
# Protocol: Peripheral blood mononuclear cells (PBMC) were obtained from healthy donors after dextran sedimentation and centrifugation on Ficoll-Paque™ gradients as previously described by Boyum A. (Scand. J. Immunol., 1976, 5(5):9). […] When indicated, EBV-infected PBMC were simultaneously treated (single addition) with different concentrations of LTB4, i.e. 0.3, 3.0 and 30 nM, respectively. […] Cells were cultured in microplates and the clumps were counted in each well. […] NS: nonstimulated cells.
# HIV-1IIIB = assay: Reverse transcriptase activity in HIV-1-infected PBMC; format: cell-based, human; settings: LTB4 in culture media (100 nM elsewhere in the source), two weeks of culture
# Protocol: PBMC were resuspended at a density of 10^6 cells/ml in culture medium (RPMI-1640 supplemented with 10% FBS), and cultured in the presence of 3 μg/ml PHA-P (Sigma, St.Louis, Mo.) and 30 U/ml of recombinant human IL-2 for 2 to 3 days at 37° C. under a 5% CO2 atmosphere. PHA-stimulated PBMC were resuspended at 1×10^6 cells/ml and were infected with HIV-1IIIB (various multiplicity of infection: number of infectious virus particles/target cell) in the absence or the presence of increasing concentrations of LTB4 (0, 30, 100, and 200 nM). The culture media were changed twice a week and appropriate amounts of LTB4 were added at every medium change. […] Virus replication was monitored either by reverse transcriptase or p24 assays. […]
# Enzymatic activity was measured with 50 μl of cell-free supernatant to which 10 μl of a solution A (5 mM dithiothreitol, 50 mM KCl, 0.05% Triton X-100) and 40 μl of a solution B (5 mM MgCl2, […], 0.04 mg of poly(rA)-oligo(dT)12-18, […] [^3H]TTP (40 to 70 Ci/mmol) had been added. After incubation for 1 hour at 37° C., samples were precipitated with one volume of a solution containing 0.15% pyrophosphate and 1.66% trichloroacetic acid prior filtration onto glass fiber filters by using a cell harvester system. The filters were dried and radioactivity was measured in a liquid scintillation counter (1205/1204 BS Beta-plate; Wallac Oy, Turku, Finland). […]
# HIV-1 = assay: Synthesis of HIV-1 particles in J1.1 cells (end-point titration, TCID50); format: cell-based; settings: for percentage of inhibition of HIV-1 particles synthesis: 48 hours
# Protocol: This set of experiments was carried out with the J1.1 cell line, a latently […] cell line derived from the parental cell line Jurkat E6.1. J1.1 cells were resuspended at a density of 10^6 cells/ml in culture medium (RPMI-1640 supplemented with 10% FBS) and were stimulated with the phorbol ester PM-A (20 ng/ml) in the absence or the presence of increasing concentrations of LTB4 (0,30, 100 nM). LTB4 was again added (to the same concentrations) 24 hours after the initiation of the cultures.
# End-point titration was carried out in flat-bottom microtiter wells using four parallel series of ten-fold dilutions of cell-free supernatants. After 5 to 7 days of incubation with MT-4 cells, cell-free supernatants were harvested and tested for the major viral core p24 protein by a commercially available enzymatic assay. The TCID50 was calculated by the method of Reed and Muench.
# [1] = system: cell cultures of Examples I and II; assay: LTB4 cytotoxicity, trypan blue dye exclusion test; format: cell-based, human; settings: concentrations up to 30 nM
# Protocol: In cell cultures described in Examples I and II, the cytotoxic effect of LTB4 was assessed by the trypan blue dye exclusion test at concentrations up to 30 nM. […] Cell viability was assessed by the trypan blue exclusion test; values (from 1 experiment representative of 3) represent the mean cell viability in cell cultures (n=24).
# EBV = assay: Synthesis of EBV particles in B95-8 cells; settings: for inhibition of production of EBV particles (decrease of EBNA antigen positive cells): 14 days
# Protocol: In order to evaluate the effects of LTB4 on the production of newly synthesized viral particles, B95-8 cells, in which EBV replicates, was cultured in the presence or absence of LTB4 (to the concentrations indicated in FIG. 3 at days 0, 5 and 10) during 14 days. The cells were grown in RPMI-1640 medium supplemented with 10% heat inactivated fetal bovine serum (FBS) . […] Viral titers were measured by ACIF test on PBMC and expressed in transforming units per ml (TFU/ml). PBMC were then infected with these different EBV preparations and the presence of EBNA was assessed by immunofluorescence (ACIF test).
# HSV-1 = assay: Synthesis of HSV-1 particles in Vero cells; settings: concentration not stated (summary)
smiles,measurement,setting,value
"CCCCC/C=C\C[C@@H](O)/C=C/C=C/C=C\[C@@H](O)CCCC(=O)O [LTB4, 5S,12R-dihydroxy-6,8,10,14 (Z,E,E,Z)-eicosatetraenoic acid]",formation of clumps,"EBV, strain B95-8",markedly affected the formation of clumps
same,reduction of reverse transcriptase (viral) activity,HIV-1IIIB,more than 70%
same,percentage of inhibition of HIV-1 particles synthesis,HIV-1; LTB4 30 nM,49% and 50% and 56%
same,percentage of inhibition of HIV-1 particles synthesis,HIV-1; LTB4 100 nM,55% and 61% and 79%
same,inhibition of formation of new HIV-1 particles,HIV-1; concentration not stated (summary),> 55%
same,cytotoxic effect / cell viability,[1],no direct cytotoxic effect
same,inhibition of production of EBV particles (decrease of EBNA antigen positive cells),"EBV; 30 nM LTB4, B95-8 cells",70%
same,inhibition of production of EBV particles (decrease of EBNA antigen positive cells),"EBV; 100 nM LTB4, B95-8 cells",85%
same,inhibition of formation of new EBV particles,"EBV; B95-8 cells, concentration not stated (summary)",> 80%
same,inhibition of formation of new HSV-1 particles,HSV-1,75%
